From article PMC11187573, “Identification of SARS-CoV-2 Mpro inhibitors through deep reinforcement learning for de novo drug design and computational chemistry approaches” (RSC Medicinal Chemistry, 2024)

What was measured:
[1] = test system: SARS-CoV-2 main protease; assay type: biochemical; conditions: Docking validation set, class assigned from COVID Moonshot IC50
[2] = test system: SARS-CoV-2 main protease; conditions: Docking_validation.csv; ref COVID Moonshot; read-out: f_avg_IC50; cited from earlier work
[3] = test system: trypsin; set-up: method as in COVID Moonshot; conditions: Docking_validation.csv; ref COVID Moonshot; read-out: trypsin_IC50; cited from earlier work
[4] = biological target: human Cathepsin L (Homo sapiens, UniProt P07711); assay: Fluorimetric human liver Cathepsin L (hCatL) activity assay; assay type: biochemical; conditions: reference inhibitor
[5] = test system: host–cell proteases, such as cathepsin L; set-up: method as in PMID 34726479, PMID 35352927, PMID 33158912; conditions: cited from earlier work

Chain of human Cathepsin L (P07711 114-333 limits assumed): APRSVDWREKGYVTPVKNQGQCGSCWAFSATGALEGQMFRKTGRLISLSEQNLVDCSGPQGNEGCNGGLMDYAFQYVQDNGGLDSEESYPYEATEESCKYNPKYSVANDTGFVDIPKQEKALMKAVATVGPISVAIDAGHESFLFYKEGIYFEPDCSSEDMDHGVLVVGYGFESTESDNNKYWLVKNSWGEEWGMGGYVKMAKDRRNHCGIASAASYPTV

For O=C(Cc1cccc(Cl)c1)Nn1cnc2ccccc2c1=O [JAN-GHE-5a013bed-3, O=C(Cc1cccc(Cl)c1)Nn1cnc2ccccc2c1=O], the “label (active / inactive)” value [1] is listed as “inactive”, the IC50 [2] is listed as 8.65 µM and the IC50 [3] is listed as 99 µM.

CC(=O)N[C@@H](CC(C)C)C(=O)N[C@@H](CC(C)C)C(=O)N[C@H](C=O)CCCNC(=N)N [Leupeptin] showed an IC50 [4] of about 0.002 µM.

In the case of Cn1cnc(Cn2c(=O)[nH]/c(=N\c3cc4cn(C)nc4cc3Cl)n(Cc3cc(F)c(F)cc3F)c2=O)n1 [ensitrelvir], the “inhibitory activity against host–cell proteases, such as cathepsin L” value [5] is given as “no inhibitory activity”.

For Nirmatrelvir–ritonavir, the “inhibitory activity against host–cell proteases, such as cathepsin L” value [5] is given as “no inhibitory activity”.
